Experimental data: patent US8440677B2, “Atropisomers of 2-purinyl-3-tolyl-quinazolinone derivatives and methods of use” (Gilead Calistoga LLC, priority 2009, dated 2013)
Like-named read-outs stand apart in the source and are kept apart here.

Experiments:
[1] = human; for AUClast / Cmax / T½: 25 mg racemate daily for 7 days, 40 nCi labeled spike on day 4
[2] = Metabolites in human plasma; conditions: human subjects dosed with the substance
clinical = conditions: human, plasma, po, 100 mg
[3] = compounds dissolved in PEG 100
[4] = test system: collagen induced arthritis (CIA) rats; assay: Collagen induced arthritis (CIA) rats; format: in vivo, rat; conditions: compared to vehicle
[5] = human subjects
[6] = Human pharmacokinetics, racemic mixture versus 1(S) at 10 mg once daily; format: in vivo
Description: Human pharmacokinetic was obtained after both the racemic mixture and 1(S) were administered at 10 mg once daily. […] Since the dose is low and well absorbed, as evidenced by the determination of 100% bioavailability, it is likely that the 1(R) metabolism is greater. The greater extent and complexity of 1(R) metabolism was supported by studies on human and rat in vivo metabolism as well as in vitro studies of human liver microsomes and protein binding.

[7] = Metabolic products in rat urine by LC-MS (FIG. 12); format: in vivo; conditions: rats, single 50 mg/kg oral dose of the atropisomer
Description: A single 50 mg/kg oral dose of either atropisomer 1(S) or 1(R) was administered to rat subjects. The rat urine was subsequently sampled and analyzed using LC-MS instrumentation.

[8] = Plasma concentration in human subjects after a single oral dose of 100 mg or 10 mg (FIG. 10); format: in vivo
[9] = human subject, oral radiolabeled atropisomer; for metabolite formation in plasma, 72 hours: 72 hours after administration
p110δ [10] = molecular target: T1, p110δ (Homo sapiens, UniProt O00329); assay: In vitro activity against p110 isoforms, cell-based assays (FIG. 5B); conditions: versus other p110 isoforms
T1 sequence (O00329 1-1044): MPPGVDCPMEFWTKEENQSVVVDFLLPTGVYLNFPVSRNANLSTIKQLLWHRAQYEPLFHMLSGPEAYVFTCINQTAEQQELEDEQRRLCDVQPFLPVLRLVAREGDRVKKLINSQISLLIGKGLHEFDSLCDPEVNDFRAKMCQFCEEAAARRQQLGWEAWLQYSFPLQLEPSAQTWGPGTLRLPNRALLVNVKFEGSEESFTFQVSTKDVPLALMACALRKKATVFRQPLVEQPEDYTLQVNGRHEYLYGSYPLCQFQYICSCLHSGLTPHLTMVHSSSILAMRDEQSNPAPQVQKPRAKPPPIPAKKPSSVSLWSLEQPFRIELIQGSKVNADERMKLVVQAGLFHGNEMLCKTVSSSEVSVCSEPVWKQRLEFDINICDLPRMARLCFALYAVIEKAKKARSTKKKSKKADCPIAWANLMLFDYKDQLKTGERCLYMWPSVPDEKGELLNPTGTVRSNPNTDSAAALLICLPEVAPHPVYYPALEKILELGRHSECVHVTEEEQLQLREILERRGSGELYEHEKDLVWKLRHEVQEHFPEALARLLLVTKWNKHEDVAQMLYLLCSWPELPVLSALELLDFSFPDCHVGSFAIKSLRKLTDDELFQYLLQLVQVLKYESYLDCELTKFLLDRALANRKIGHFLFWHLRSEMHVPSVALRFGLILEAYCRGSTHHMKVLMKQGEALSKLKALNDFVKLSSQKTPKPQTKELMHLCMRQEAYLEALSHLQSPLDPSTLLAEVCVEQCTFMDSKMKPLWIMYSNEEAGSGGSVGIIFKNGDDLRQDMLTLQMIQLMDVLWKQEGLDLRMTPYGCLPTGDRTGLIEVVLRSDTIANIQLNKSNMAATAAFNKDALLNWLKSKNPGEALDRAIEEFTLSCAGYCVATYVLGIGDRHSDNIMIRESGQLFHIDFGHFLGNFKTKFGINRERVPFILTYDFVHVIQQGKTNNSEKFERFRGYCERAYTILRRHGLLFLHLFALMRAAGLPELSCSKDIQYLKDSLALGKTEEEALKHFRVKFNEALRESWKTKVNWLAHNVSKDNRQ
Text: (§1) The in vitro activity of 1 and atropisomers, 1(S) and 1(R), have similar profiles in various isoforms of p110 inhibition as shown in FIGS. 5A and 5B. […] Although their in vitro potency appears to be similar, there are surprising in vivo differences observed between 1(S) and 1(R) as discovered in pharmacokinetic studies, mainly relating to the increased exposure of 1(S) and decreased exposure of 1(R) in the subject.

[11] = Solubility in a series of aqueous solvents (FIG. 4); format: physicochemical; conditions: variety of aqueous solutions
[12] = Interconversion of atropisomers in blood plasma; format: in vivo; conditions: within 4 hours after administration of the atropisomer
Text: Another possible explanation for the difference in exposure is that 1(R) is interconverted to 1(S) over time. […] However, this small amount of conversion should only account for a fraction of the difference in exposure rates in vivo and other factors, such as selective elimination of 1(R), are likely to play the major role in the lowered exposure rate of 1(R).

p110δ [13] = molecular target: p110δ (Homo sapiens, UniProt O00329); assay: In vitro activity against p110 isoforms, biochemical assays (FIG. 5A); conditions: versus p110alpha, p110beta, p110 gamma isoforms
Text: as §1
Target sequence in this assay (P27986 whole entry partner, one chain of several, canonical isoform): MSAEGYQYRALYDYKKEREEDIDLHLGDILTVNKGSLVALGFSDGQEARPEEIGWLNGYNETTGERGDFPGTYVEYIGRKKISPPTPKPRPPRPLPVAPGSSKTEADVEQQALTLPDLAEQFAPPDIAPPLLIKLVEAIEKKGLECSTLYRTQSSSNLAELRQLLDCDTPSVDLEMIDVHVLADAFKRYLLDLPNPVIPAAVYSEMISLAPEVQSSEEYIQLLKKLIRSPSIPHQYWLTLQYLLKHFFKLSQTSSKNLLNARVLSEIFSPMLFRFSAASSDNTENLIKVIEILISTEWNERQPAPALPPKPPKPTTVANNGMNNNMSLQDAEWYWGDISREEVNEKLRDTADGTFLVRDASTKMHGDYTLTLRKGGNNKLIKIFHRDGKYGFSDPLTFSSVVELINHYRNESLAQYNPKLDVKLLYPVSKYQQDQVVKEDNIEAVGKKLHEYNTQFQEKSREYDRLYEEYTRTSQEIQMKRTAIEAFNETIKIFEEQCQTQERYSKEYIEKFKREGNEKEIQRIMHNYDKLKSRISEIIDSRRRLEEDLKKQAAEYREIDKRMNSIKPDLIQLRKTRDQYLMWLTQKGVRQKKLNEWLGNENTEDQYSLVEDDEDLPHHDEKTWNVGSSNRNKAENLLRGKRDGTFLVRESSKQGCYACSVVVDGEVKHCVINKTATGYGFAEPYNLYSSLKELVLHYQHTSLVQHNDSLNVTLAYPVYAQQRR

[14] = Plasma concentration of atropisomers in dogs after oral dosing with racemic 1 (FIG. 7); format: in vivo; conditions: female dogs, single 50 mg/kg oral dose of racemic 1
Description: The tagged racemic mixture or separated atropisomers were administered in rats, dogs, and human subjects through oral and i.v. routes. The compounds were dissolved in PEG 100 such that any difference in dissolution rates would not play a role in the pharmacokinetic profile of the compounds. […] After administration of the compound, blood plasma of the subjects were sampled over time and evaluated by analytical HPLC methods developed to identify and measure concentrations of compound 1(S) or 1(R) present in the sample. It was observed that the most abundant isomer measured in the plasma is compound 1(S), which accounts for 70-80% of exposure to the subject.
In approximately 1 hour after dosing the maximum concentration of compounds 1(S) and 1(R) is reached. At that point, the concentration of 1(R) is less than half the concentration of compound 1(S). […] These large differences in pharmacokinetic behavior were not predictable.

[15] = for plasma concentration at 24 hours: female rats, single dose 1.5 mg/kg
in vivo = conditions: female, Sprague Dawley, rat, iv
[16] = Plasma concentration in rats after single oral dose of 1(S) or 1(R) (FIG. 9B); format: in vivo, rat; conditions: female rats, single oral dose 1.5 mg/kg, 12 hour time point
[17] = Plasma concentration of atropisomers in rats after oral dosing with racemic 1 (FIG. 6); format: in vivo; conditions: female rats, single 50 mg/kg oral dose of racemic 1, 8 hours after dosing
[18] = Elimination in urine by LC-MS; format: in vivo; conditions: compared with 1(S)
[19] = Metabolites in human urine by LC/MS/MS; conditions: humans
Description: Urine was collected from humans dosed the racemic mixture and evaluated for possible metabolites using LC/MS/MS.

[20] = single 100 mg oral dose of racemic 1
[21] = 25 mg racemate daily, labeled spike on day 4, after day 1
[22] = female SD rats, single bolus i.v.

Structure (SMILES): Cc1ccccc1-n1c(Cn2cnc3c(N)ncnc32)nc2cccc(C)c2c1=O (single isomer, unassigned) [Compound 1(S), 2-((6-amino-9H-purin-9-yl)methyl)-5-methyl-3-o-tolylquinazolin-4(3H)-one]
- AUClast [1]: 90511 neq*h/mL
- Cmax [1]: 3930 neq/mL
- T½ [1]: 63.9 h
- AUC of 1(S) relative to 1(R) ([1]; data of FIG. 11): over 4 times
- Cmax of 1(S) relative to 1(R) ([1]; data of FIG. 11): twice
- half-life of 1(S) relative to 1(R) ([1]; data of FIG. 11): 6 times
- number of metabolites observed in plasma [2]: one
- half-life (clinical): > 72 h
- share of exposure to the subject (most abundant isomer in plasma) [3]: 70-80%
- anti-collagen antibody levels ([4]; FIG. 15): reduction of collagen antibody levels
- X-ray score (radiographic assessment) ([4]; FIG. 16): reduction in the X-ray score
- histopathology, dark areas of tissue images ([4]; similar to MTX, FIGS. 17A-D): reduced
- arthritis score ([4]; versus days post compound dosing, FIG. 14): activity in reducing the severity of arthritis
- half-life in humans (in words) ([5]; oral racemic 1, greater than in dogs): several days
- share of the exposure at the maximum concentration point [5, 20]: approximately 70%
- plasma concentration of 1(S) relative to 1(R) ([5]; single 100 mg oral dose of racemic 1, 72 hours post-dosing): over 10 times
- Cmax of 1(S) greater than racemic mixture [6]: 30%
- increase of AUC0-24 of 1(S) over racemic mixture ([6]; Day 1): 2.4 fold
- increase of AUC0-24 of 1(S) over racemic mixture ([6]; Day 7): 40%
- metabolic products found in urine [7]: mainly one compound
- maximum plasma concentration of 1(S) relative to 1(R) ([8]; single oral dose of 10 mg): about double
- maximum plasma concentration of 1(S) relative to 1(R) ([8]; single oral dose of 100 mg): over 2 times
- metabolite formation in plasma, 1 hour ([9]; 1 hour after administration): remains largely unmodified
- metabolite formation in plasma, 72 hours [9]: still less than the amount of the parent compound
- p110δ inhibition in cell-based assays (p110δ [10]): selective p110δ inhibition
- solubility differences between 1(S) and 1(R) [11]: Modest solubility differences
- conversion to the other atropisomer in blood plasma [12]: less than 1%
- p110δ inhibition in biochemical assays (p110δ [13]): selective p110δ inhibition
- time to maximum plasma concentration [14]: approximately 1 hour
- plasma concentration at 24 hours [15]: very low
- AUC (in vivo; plasma, 1.5 mg/kg): 865 ± 212 ng·h/mL
- Vd (in vivo; plasma, 1.5 mg/kg): 5.77 ± 2.74 L/kg
- clearance (in vivo; plasma, 1.5 mg/kg): 30.6 mL/min/kg
- half-life (in vivo; plasma, 1.5 mg/kg): 2.5 ± 1.6 h
- plasma concentration of 1(S) versus 1(R) [16]: greatly exceed

Structure (SMILES): Cc1ccccc1-n1c(Cn2cnc3c(N)ncnc32)nc2cccc(C)c2c1=O (single isomer, unassigned) [Compound 1(R), 2-((6-amino-9H-purin-9-yl)methyl)-5-methyl-3-o-tolylquinazolin-4(3H)-one]
- AUClast [1]: 21676 neq*h/mL
- Cmax [1]: 1946 neq/mL
- concentration of 14C radiolabeled material in blood plasma ([1]; 25 mg racemate daily, labeled spike on day 4, 50 hours from dosing): 10-50 neq/mL
- concentration of 1(R) relative to 1(S) [1, 21]: about one-fourth
- concentration of 14C radiolabeled material in blood plasma [1, 21]: about 500 neq/mL
- average plasma concentration of 1(R) relative to 1(S) [17]: approximately one-fourth
- half-life (clinical; half-life, human subjects, single 100 mg oral dose of racemic 1): ~9 h
- plasma concentration of 1(R) relative to 1(S) at maximum concentration [5, 20]: less than half
- metabolic products found in urine [7]: more metabolic products
- elimination in urine [18]: preferentially eliminated in urine
- metabolite formation in plasma, 72 hours [9]: primarily the metabolites are detected
- p110δ inhibition in cell-based assays (p110δ [10]): selective p110δ inhibition
- solubility differences between 1(S) and 1(R) [11]: Modest solubility differences
- conversion to the other atropisomer in blood plasma [12]: approximately 14%
- p110δ inhibition in biochemical assays (p110δ [13]): selective p110δ inhibition
- plasma concentration of 1(R) relative to 1(S) at maximum concentration [14]: less than half
- time to maximum plasma concentration [14]: approximately 1 hour
- Vz of 1(R) relative to 1(S) or racemic mixture [15, 22]: about 2.6 times
- half life of 1(R) relative to 1(S) or racemic mixture 1 [15, 22]: about 2.8 times
- plasma concentration at 24 hours [15]: very low

Structure (SMILES): Cc1ccccc1-n1c(Cn2cnc3c(N)ncnc32)nc2cccc(C)c2c1=O (single isomer, unassigned) [Compound 1, 2-((6-amino-9H-purin-9-yl)methyl)-5-methyl-3-o-tolylquinazolin-4(3H)-one]
- AUClast [1]: 51,032 ± 22,383 neq*h/mL
- Cmax [1]: 2780 ± 1163 neq/mL
- T½ [1]: 69.9 ± 26.6 h
- number of metabolites observed in plasma ([2]; listed as racemic mixture): 2
- number of metabolites confirmed in urine ([19]; authentic racemic standards, achiral method): 5
- total number of metabolites observed in urine ([19]; counting atropisomers of metabolites): 9
- p110δ inhibition in cell-based assays (p110δ [10]): selective p110δ inhibition
- p110δ inhibition in biochemical assays (p110δ [13]): selective p110δ inhibition
- AUC (in vivo; in vivo, 3 mg/kg): 1970 ± 243 ng·h/mL
- Vd (in vivo; in vivo, 3 mg/kg): 5.4 ± 1.57 L/kg
- clearance (in vivo; in vivo, 3 mg/kg): 26 mL/min/kg
- half-life (in vivo; in vivo, 3 mg/kg): 2.5 ± 0.7 h
